Data from patent publication US20050096323A1, “Diketopiperazine derivatives to inhibit thrombin” (NovoScience Pharma Inc., priority 1999, published 2005).
Counter-ions that a name gives are not always drawn.

How the values were obtained:
thrombin = biological target: T1, thrombin (Homo sapiens, UniProt P00734); assay: Thrombin inhibition constant (Ki), fluorogenic substrate assay; format: biochemical; conditions: for Cycloargatroban vs. Argatroban, Ki(Thrombin): thrombin inhibition activity relative to argatroban
T1 construct: purchased Sigma

trypsin = biological target: T2, trypsin (Bos taurus, UniProt P00760); assay: Trypsin inhibition constant (Ki), fluorogenic substrate assay; format: biochemical
T2 sequence (P00760 24-246): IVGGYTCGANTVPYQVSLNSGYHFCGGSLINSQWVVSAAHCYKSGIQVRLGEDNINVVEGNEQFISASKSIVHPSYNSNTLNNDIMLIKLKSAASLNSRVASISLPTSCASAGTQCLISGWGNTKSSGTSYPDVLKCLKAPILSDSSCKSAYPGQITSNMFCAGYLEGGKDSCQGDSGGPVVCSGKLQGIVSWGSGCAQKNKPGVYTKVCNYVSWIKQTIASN
Procedure: The activity and selectivity of the present invention can be identified by determination of the inhibition constant (Ki) for serine proteases such thrombin and trypsin and fibrinolytic enzymes such as urokinase, plasmin and tissue plasminogen activator (tPA). All of enzymes are purchased from Sigma. The general assay conditions are as follows. The fluorogenic substrates are dissolved in DMSO and diluted using assay buffer containing 50 mM Tris.HCl (pH 7.8 at 25° C.), 0.1 M NaCl and 0.1% polyethylene glycol 8000 (PEG 8000). […] The assays were conducted using Hitachi F2500 spectrophotometer under ambient temperature and at the excitation and emission wavelengths of 383 nm and 455 nm, respectively. The typical progressive data of the enzymatic assays are shown in FIGS. 1-3, and the determination of inhibition constant (Ki) is shown in FIG. 4.

[1] = system: pooled normal human plasma; assay: Ex vivo coagulation assay (APTT prolongation); format: biochemical; conditions: normal citrated human plasma
Procedure: Frozen-pooled human plasma was obtained from Sigma. Measurement of APTT was made using the ELECTRA™ 800 automated coagulometer (Medical Laboratory Automation Inc.) using the automated APTT reagent (SIGMA) as the initiator of clotting according to the manufacture's instructions. The assay was conducted by making a series of dilution of the reference and test compounds in rapidly thawed plasma (compound: plasma=0.1 ml:0.9 ml) followed by adding the mixed solution to the wells of the assay carousel. Tris buffers (pH 7.8 at 25° C.) were used through the entire assay.

[2] = Acute toxicity, intravenous injection, determination of LD50; format: in vivo, mice; conditions: both sexes, ICR, mouse, in vivo, iv, ICR mice, single i.v., Bliss method
Description: 1) Determination of LD50 (Tables III and IV): ICR mice, 18 ˜20 g, were divided into five groups, with 10 animals in each group (half male and half female). The ratio of doses between groups was 1:0.85.

ICR mice = assay: Acute toxicity, oral gavage, determination of the maximal dose; format: in vivo
Description: The dose is based on maximal dissolution rate and maximal administered volume of the drug.

SD rats [3] = assay: RT, TT, PT, APTT and FIB in rat plasma after administration; format: in vivo; design: FIB (Fibrillation) / RT (Clot Retraction Time) / TT (Thrombin Time): unit not given here
Procedure: Blood was taken at 0.5 h and 1.5 h after i.v. injection and at 1 h and 3 h after i.g. and plasma RT,TT,PT,APTT and FIB were determined.

SD rats [4] = assay: Weight of deep vein thrombosis (inferior vena cava thrombi) in rats; format: in vivo, rat; conditions: for Thrombi (mg) Dry weight / Thrombi (mg) Wet weight: 4 hours
Procedure: The drug was administered immediately after operation and, 4 hours later, the thrombi were collected and weighted.

SD rats [5] = assay: Acute myocardial infarction by coronary artery ligation in rats; format: in vivo, rat; conditions: for CK (u/ml) / LDH (u/ml): serum;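 for CK (u/ml): blood collected at end of 6 h (i.v.) or 8 h (intraduodenal) ECG observation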;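 for LDH (u/ml): blood collected at end of 6 h (i.v.) or 8 h (intraduodenal) ECG observation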
Procedure: The drugs were administered 8 to 10 min after the coronary artery was ligated.

[6] = i.v. 0.25 mg/kg, first time point (0.5 h)
[7] = i.v. 0.25 mg/kg, second time point (1.5 h)
[8] = 0.125 mg/kg i.v., 0 min after ligation (before drug)
[9] = 0.125 mg/kg i.v., 10 min after ligation
[10] = 0.125 mg/kg i.v., 30 min after ligation
[11] = 0.125 mg/kg i.v., 6 h after ligation
[12] = 0.25 mg/kg i.v., 0 min after ligation (before drug)
[13] = 0.25 mg/kg i.v., 10 min after ligation
[14] = 0.25 mg/kg i.v., 30 min after ligation
[15] = 0.25 mg/kg i.v., 6 h after ligation
[16] = 75 mg/kg intraduodenum, 0 min after ligation (before drug)
[17] = 75 mg/kg intraduodenum, 10 min after ligation
[18] = 75 mg/kg intraduodenum, 30 min after ligation
[19] = 75 mg/kg intraduodenum, 6 h after ligation

CC1CNc2c(cccc2S(=O)(=O)N2C(=O)C3CC(C)CCN3C(=O)C2CCCNC(=N)N)C1 [NPI1999, (3S,6R,8R)-Bicyclo[4.4.0]-1,4-diaza-3-(3-guanidinopropyl)-4-N-(1,2,3,4-tetrahydro-3-methyl-8-quinolinesulfonyl)-8-methyl-2,5-decanedione, hydrochoride salt]
Ki (thrombin; Table II, method of example 9): 20 to 40 nM | Ki (thrombin; substrate Tos-Gly-Pro-Arg-AMC, pH 7.8): 40 nM | Cycloargatroban vs. Argatroban, Ki(Thrombin) (thrombin; listed as Cycloargatroban): −2.1 fold | Cycloargatroban vs. Argatroban, Ki(Thrombin) (thrombin; listed as cycloargatroban): 2.1 fold | Cycloargatroban [Ki (Enzyme)/Ki (Thrombin)] vs. Argatroban [Ki (Enzyme)/Ki (Thrombin)] (trypsin; listed as Cycloargatroban): +12 fold | Cycloargatroban [Ki (Enzyme)/Ki (Thrombin)] vs. Argatroban [Ki (Enzyme)/Ki (Thrombin)] (trypsin; listed as cycloargatroban): 12 fold | effect on APTT compared with argatroban [1]: less strong effect | effect on activated partial thromboplastin time (APTT) ([1]; FIG. 5): prolonged the APTT in a dose dependent manner | 95% confidence interval of LD50 at 2 weeks [2]: 10 to 11.9 mg/kg | LD50 at 2 weeks ([2]; observed 2 weeks): 10.9 mg/kg | Maximal dose of oral gavage (ICR mice; ICR mice, i.g.): 2860 mg/kg | maximal dose of i.g. (ICR mice; ICR mice, i.g.): 2.86 g/kg/day | mortality (ICR mice; i.g. 1.43 g/kg twice, up to one week): No mortality was observed | APTT (Activated Partial Prothromboplastin Time) (SD rats [3]; 0.125 mg/kg i.v., 0.5 h): 28.0 ± 4.0 | FIB (Fibrillation) (SD rats [3]; 0.125 mg/kg i.v., 0.5 h): 4.2 ± 0.9 | PT (Prothrombin Time) (SD rats [3]; 0.125 mg/kg i.v., 0.5 h): 25.3 ± 5.8 | RT (Clot Retraction Time) (SD rats [3]; 0.125 mg/kg i.v., 0.5 h): 83.7 ± 9.7 | TT (Thrombin Time) (SD rats [3]; 0.125 mg/kg i.v., 0.5 h): 53.6 ± 11.1 | APTT (Activated Partial Prothromboplastin Time) (SD rats [3]; 0.125 mg/kg i.v., 1.5 h): 28.1 ± 4.6 | FIB (Fibrillation) (SD rats [3]; 0.125 mg/kg i.v., 1.5 h): 4.5 ± 1.2 | PT (Prothrombin Time) (SD rats [3]; 0.125 mg/kg i.v., 1.5 h): 25.0 ± 7.1 | RT (Clot Retraction Time) (SD rats [3]; 0.125 mg/kg i.v., 1.5 h): 60.4 ± 15.9 | TT (Thrombin Time) (SD rats [3]; 0.125 mg/kg i.v., 1.5 h): 39.2 ± 12.5 | APTT (Activated Partial Prothromboplastin Time) (SD rats [3]; 0.25 mg/kg i.v., 0.5 h): 46.7 ± 15.0 | FIB (Fibrillation) (SD rats [3]; 0.25 mg/kg i.v., 0.5 h): 2.09 ± 0.5 | PT (Prothrombin Time) (SD rats [3]; 0.25 mg/kg i.v., 0.5 h): 43.1 ± 17.8 | RT (Clot Retraction Time) (SD rats [3]; 0.25 mg/kg i.v., 0.5 h): 107.6 ± 33.7 | TT (Thrombin Time) (SD rats [3]; 0.25 mg/kg i.v., 0.5 h): 62.1 ± 15.8 | APTT (Activated Partial Prothromboplastin Time) (SD rats [3]; 0.25 mg/kg i.v., 1.5 h): 34.1 ± 10.3 | FIB (Fibrillation) (SD rats [3]; 0.25 mg/kg i.v., 1.5 h): 2.7 ± 0.8 | PT (Prothrombin Time) (SD rats [3]; 0.25 mg/kg i.v., 1.5 h): 34.6 ± 10.1 | RT (Clot Retraction Time) (SD rats [3]; 0.25 mg/kg i.v., 1.5 h): 78.6 ± 16 | TT (Thrombin Time) (SD rats [3]; 0.25 mg/kg i.v., 1.5 h): 49.6 ± 10.9 | APTT (Activated Partial Prothromboplastin Time) (SD rats [3]; 75 mg/kg i.g., 1 h): 30.2 ± 6.9 | FIB (Fibrillation) (SD rats [3]; 75 mg/kg i.g., 1 h): 4.4 ± 0.7 | PT (Prothrombin Time) (SD rats [3]; 75 mg/kg i.g., 1 h): 26.6 ± 5.5 | RT (Clot Retraction Time) (SD rats [3]; 75 mg/kg i.g., 1 h): 74.8 ± 16.6 | TT (Thrombin Time) (SD rats [3]; 75 mg/kg i.g., 1 h): 53.2 ± 10.0 | APTT (Activated Partial Prothromboplastin Time) (SD rats [3]; 75 mg/kg i.g., 3.0 h): 25.7 ± 4.0 | FIB (Fibrillation) (SD rats [3]; 75 mg/kg i.g., 3.0 h): 4.5 ± 0.6 | PT (Prothrombin Time) (SD rats [3]; 75 mg/kg i.g., 3.0 h): 26.6 ± 5.7 | RT (Clot Retraction Time) (SD rats [3]; 75 mg/kg i.g., 3.0 h): 77 ± 29.9 | TT (Thrombin Time) (SD rats [3]; 75 mg/kg i.g., 3.0 h): 42.5 ± 9.4 | RT, TT, PT, APTT, FIB indexes (SD rats [3]; i.g. 75 mg/kg, 1 h or 3 h): None of the indexes was significantly affected | RT, TT, PT, APTT, FIB indexes (SD rats [3]; i.v. 0.125 mg/kg, first time point): RT alone was increased | RT, TT, PT, APTT, FIB indexes (SD rats [3]; i.v. 0.125 mg/kg, second time point): none of the indexes were affected significantly | FIB (SD rats [3]; [6]): reduced | RT, TT, PT and APTT (SD rats [3]; [6]): significantly increased | APTT and FIB (SD rats [3]; [7]): no significantly affected | RT, TT, PT (SD rats [3]; [7]): Only RT,TT,PT were increased | Thrombi (mg) Dry weight (SD rats [4]; 0.125 mg/kg i.v.): 7.62 ± 6.18 mg | Thrombi (mg) Wet weight (SD rats [4]; 0.125 mg/kg i.v.): 19.84 ± 12.17 mg | Thrombi (mg) Dry weight (SD rats [4]; 0.25 mg/kg i.v.): 6.70 ± 4.34 mg | Thrombi (mg) Wet weight (SD rats [4]; 0.25 mg/kg i.v.): 19.63 ± 12.02 mg | Thrombi (mg) Dry weight (SD rats [4]; 0.50 mg/kg i.v.): 5.81 ± 3.25 mg | Thrombi (mg) Wet weight (SD rats [4]; 0.50 mg/kg i.v.): 18.85 ± 8.61 mg | Thrombi (mg) Dry weight (SD rats [4]; 75 mg/kg intraduodenum): 11.66 ± 4.23 mg | Thrombi (mg) Wet weight (SD rats [4]; 75 mg/kg intraduodenum): 32.02 ± 19.34 mg | thrombi weights (SD rats [4]; i.v. groups (0.125, 0.25, 0.5 mg/kg)): thrombi weights were decreased | thrombi weights (SD rats [4]; intra-duodenum 75 mg/kg): no obvious effect | Infarction Area (%) (SD rats [5]; 0.125 mg/kg i.v.): 26.40 ± 7.42 % | S point in electrocardiogram (SD rats [5]; [8]): 0.33 ± 0.12 | T wave in electrocardiogram (SD rats [5]; [8]): 0.19 ± 0.15 | S point in electrocardiogram (SD rats [5]; [9]): 0.34 ± 0.19 | T wave in electrocardiogram (SD rats [5]; [9]): 0.17 ± 0.18 | S point in electrocardiogram (SD rats [5]; [10]): 0.27 ± 0.21 | T wave in electrocardiogram (SD rats [5]; [10]): 0.18 ± 0.23 | S point in electrocardiogram (SD rats [5]; [11]): 0.08 ± 0.14 | T wave in electrocardiogram (SD rats [5]; [11]): 0.02 ± 0.16 | Infarction Area (%) (SD rats [5]; 0.25 mg/kg i.v.): 25.66 ± 7.32 % | S point in electrocardiogram (SD rats [5]; [12]): 0.33 ± 0.17 | T wave in electrocardiogram (SD rats [5]; [12]): 0.19 ± 0.11 | S point in electrocardiogram (SD rats [5]; [13]): 0.42 ± 0.20 | T wave in electrocardiogram (SD rats [5]; [13]): 0.27 ± 0.13 | S point in electrocardiogram (SD rats [5]; [14]): 0.34 ± 0.22 | T wave in electrocardiogram (SD rats [5]; [14]): 0.26 ± 0.17 | S point in electrocardiogram (SD rats [5]; [15]): 0.24 ± 0.18 | T wave in electrocardiogram (SD rats [5]; [15]): 0.15 ± 0.11 | Infarction Area (%) (SD rats [5]; 75 mg/kg intraduodenum): 30.98 ± 7.41% | S point in electrocardiogram (SD rats [5]; [16]): 0.26 ± 0.13 | T wave in electrocardiogram (SD rats [5]; [16]): 0.12 ± 0.11 | S point in electrocardiogram (SD rats [5]; [17]): 0.28 ± 0.07 | T wave in electrocardiogram (SD rats [5]; [17]): 0.15 ± 0.09 | S point in electrocardiogram (SD rats [5]; [18]): 0.28 ± 0.10 | T wave in electrocardiogram (SD rats [5]; [18]): 0.18 ± 0.11 | S point in electrocardiogram (SD rats [5]; [19]): 0.18 ± 0.22 | T wave in electrocardiogram (SD rats [5]; [19]): 0.13 ± 0.11 | infarction area and serum LDH and CK (SD rats [5]; i.v. 0.25 mg/kg and 0.125 mg/kg): significantly reduced | infarction area and serum LDH and CK (SD rats [5]; intra-duodenum 75 mg/kg): no significant effects | CK (u/ml) (SD rats [5]; 0.125 mg/kg i.v.): 52.75 ± 16.25 u/ml | LDH (u/ml) (SD rats [5]; 0.125 mg/kg i.v.): 6254.1 ± 220.1 u/ml | CK (u/ml) (SD rats [5]; 0.25 mg/kg i.v.): 56.52 ± 14.48 u/ml | LDH (u/ml) (SD rats [5]; 0.25 mg/kg i.v.): 6125.7 ± 385.5 u/ml | CK (u/ml) (SD rats [5]; 75 mg/kg intraduodenum): 53.90 ± 20.60 u/ml | LDH (u/ml) (SD rats [5]; 75 mg/kg intraduodenum): 6393.3 ± 308.7 u/ml
